In PMC5466349 (Pharmacotherapy, 2014):

Assay: clinical
Details: human, in vivo; for half-life: T ½; for half-life / Tmax: geometric mean (90% CI), post-ginseng

Row | Compound | Cl/Fss geometric mean ratio (90% CI), post-ginseng/pre-ginseng | T ½ geometric mean ratio (90% CI), post-ginseng/pre-ginseng | half-life [h] | Tmax [h]
1 | Cc1cccc(C)c1OCC(=O)N[C@@H](Cc1ccccc1)[C@@H](O)C[C@H](Cc1ccccc1)NC(=O)[C@H](C(C)C)N1CCCNC1=O [Lopinavir, lopinavir] | 1.05 (0.94–1.17) | 1.19 (0.92–1.46) | 10 | 2.5
2 | CC(C)c1nc(CN(C)C(=O)N[C@H](C(=O)N[C@@H](Cc2ccccc2)C[C@H](O)[C@H](Cc2ccccc2)NC(=O)OCc2cncs2)C(C)C)cs1 [Ritonavir, ritonavir] | – | – | 7.71 | 2.7
